For 12 compounds, ΔTm, Kd and Tm results are on record in ChEMBL document CHEMBL1153095, “Design, synthesis and evaluation of 4,7-diamino-1,10-phenanthroline G-quadruplex ligands” (Bioorg Med Chem, 2009).

Common to all, as to assay type: nucleic-acid assay
In assay [1] the test system is Nucleic Acid. In words: Stabilization of 5'-d[(G3T2A)3G3]-3' quadruplex DNA assessed as change in melting temperature at 5 uM by CD-spectrophotometry.
Assay [2] has as its system Nucleic Acid. In words: Stabilization of 5'-d[(G3T2A)3G3]-3' quadruplex DNA assessed as change in melting temperature at 10 uM by CD-spectrophotometry.
The test system of assay [3] is Nucleic Acid. As to the kind of experiment: Stabilization of 5'-d[(G3T2A)3G3]-3' quadruplex DNA assessed as change in melting temperature at 20 uM by CD-spectrophotometry.
Assay [4] has as its target Nucleic Acid. As to the kind of experiment: Binding affinity to 5'-d[(G3T2A)3G3]-3' quadruplex DNA by surface plasmon resonance.
In assay [5] the test system is Nucleic Acid. In words: Stabilization of 5'-d[(AT)10]-3' duplex DNA assessed as melting temperature at 20 uM by CD-spectrophotometry.

Consider `CN(C)CCCCNc1ccnc2c1ccc1c(NCCCCN(C)C)ccnc12`, for which the ΔTm (commonly the shift of the melting midpoint relative to a reference) in assay [1] is 2.3 °C; in assay [2] it was 13 °C; in assay [3] it was 14.4 °C. The Kd – broadly, the free concentration of one partner at which half of the binding sites on the other are occupied at equilibrium, for simple one-to-one binding – in assay [4] came out at 330 nM.

Turning to `NCCCNc1ccnc2c1ccc1c(NCCCN)ccnc12`, the ΔTm was 2.4 °C in assay [1], 10.6 °C in assay [2] and 13.1 °C in assay [3]. The compound also had an equilibrium dissociation constant (Kd) in assay [4] of 450 nM.

Consider `CN(C)CCNc1ccnc2c1ccc1c(NCCN(C)C)ccnc12`, for which the values for the ΔTm in assay [1], in assay [2] and in assay [3] were 1.8 °C, 8.8 °C and 10.5 °C, respectively. In assay [4], this compound returned a Kd of 820 nM.

For `NCCNc1ccnc2c1ccc1c(NCCN)ccnc12`, the ΔTm in assay [1] came to 2 °C; in assay [2], 7.6 °C; in assay [3], 9.9 °C. In assay [4], binding was put at a Kd of 720 nM.

Regarding `Nc1ccnc2c1ccc1c(N)ccnc12`, in assay [3], the ΔTm came to 1.3 °C.

Consider `NCCCCNc1ccnc2c1ccc1c(NCCCCN)ccnc12`, for which the ΔTm in assay [1] was 2.5 °C; in assay [2], 14.6 °C; in assay [3], 15.3 °C. The same compound gave a Kd in assay [4] of 230 nM. The Tm (usually the temperature at which the thermal transition is half complete) in assay [5] was determined as 57 °C.

Regarding `N=C(N)NCCNc1ccnc2c1ccc1c(NCCNC(=N)N)ccnc12`, the ΔTm in assay [1] is 3 °C; in assay [2], 9.9 °C; in assay [3], 13.7 °C. In assay [4], this compound gave a Kd of 400 nM.

For `c1cnc2c(c1)ccc1cccnc12`, the ΔTm in assay [3] turned out to be 0 °C.

For `CN(C)CCCNc1ccnc2c1ccc1c(NCCCN(C)C)ccnc12`, the results for the shift in melting temperature (ΔTm) in assay [1], in assay [2] and in assay [3] were 1.9 °C, 10.6 °C and 13.3 °C, respectively. Moreover, in assay [4], binding was characterised by a dissociation constant (Kd) of 300 nM.

`N=C(N)NCCCNc1ccnc2c1ccc1c(NCCCNC(=N)N)ccnc12`: the ΔTm was determined as 6 °C in assay [1], 14.2 °C in assay [2] and 16.6 °C in assay [3]. This compound also yielded a Kd in assay [4] of 410 nM.

Consider `Cc1ccnc2c1ccc1c(C)ccnc12`, for which the ΔTm in assay [3] is 0.1 °C.

As to `N=C(N)NCCCCNc1ccnc2c1ccc1c(NCCCCNC(=N)N)ccnc12`, the figures for the ΔTm in assay [1], in assay [2] and in assay [3] were 6.1 °C, 14.7 °C and 17.3 °C, respectively. In assay [4], binding was characterised by a dissociation constant (Kd) of 330 nM. Moreover, the Tm in assay [5] is 63 °C.
